row,Compound,melting point
1,CN1C(C)(C(=O)OC(C)(C)C)COS1(=O)=O (stereo not given),54 to 55 °C
2,Cc1ccc(C(=C(C=O)c2nnnn2C)c2ccc(C)cc2F)c(F)c1,154 to 155 °C
3,CCOC(=O)C(C)=Cc1ccc(Sc2ccncc2)c(C(F)(F)F)c1,> 200 °C
4,CC(=O)NCC1CC(c2cc(F)c(F)c(F)c2)=NO1 (stereo not given),136 to 137 °C
5,CCC(C)(C)NC(=S)Nc1cc(Cl)cc(Cl)c1,134 to 136 °C
6,NNC1=Nc2sc(Cl)cc2C(c2ccccc2)=NC1,204 to 207 °C
7,COC(=O)c1ccccc1S(=O)(=O)NC(=O)Nc1cc(C)nc(C)n1,125 to 127 °C
8,COc1ccc(Cl)n2nc(S(=O)(=O)Cl)nc12,149 to 151 °C
9,O=C(CSc1ccncc1)C12CC3CC(CC(C3)C1)C2,114 to 115 °C
10,CCS(=O)(=O)N[C@H]1CC[C@H](CCN2CCC(c3cccc4c3CCO4)CC2)CC1,131 °C
11,CCOP(=O)(CNC(=O)OC(C)(C)C)CNC(=O)OC(C)(C)C,118 to 120 °C
12,Clc1ccccc1C=Nc1c2c(nc3ccccc13)CCCC2,165 to 166 °C
13,CCC(CC)n1cc(Br)nc(N2CCc3cc(Cl)cc(Cl)c32)c1=O,158 to 160 °C
14,Clc1ccc(N2CCN(Cc3nc4ccccc4[nH]3)CC2)cc1,212 to 213 °C
15,CCCc1c(OCc2cccc(COc3ccccc3CCC(=O)O)c2)ccc2c1OCCC2=O,132 to 135 °C
16,FC(F)(F)c1cccc2c1Sc1ccccc1NC2=S,265 to 267 °C
17,CSc1ccc2c(O)c(CS(C)(=O)=O)cnc2c1,290 to 292 °C
18,Cc1nc2c(Cc3ccccc3)cnn2c(=O)[nH]1,225 °C
19,CNc1nc2ccccc2c2[nH]c3ccccc3c12,146 to 147 °C
20,CCOC(=O)C1(C(=O)OCC)OC(=O)c2ncccc2C1(O)c1ccccc1 (stereo not given),146 to 147 °C
21,CCCOc1ccccc1-c1ncc(NC(C)=O)c(=O)[nH]1,195 to 197 °C
22,CC(=O)c1cn(C)cc(-c2cccc(C(F)(F)F)c2)c1=O,130 to 131 °C
23,CC(C)CCCC(C)Cc1nc2c3cc(Br)sc3c3sc(Br)cc3c2nc1CC(C)CCCC(C)C (stereo not given),106 to 108 °C
24,CCCOc1ccc(S(=O)(=O)N2CCN(CC)CC2)cc1C(=O)Nc1c(C(N)=O)nn(Cc2ccccn2)c1CC,191 to 192 °C

# Continued, values first:
row,melting point,Compound
1,202 to 204 °C,COc1cccc(/C=C/C2=CCN(Cc3nc4ccccc4[nH]3)CC2)c1
2,200 °C,O=C(Nc1ccc(C(=O)N2C[C@@H]3CCCN3c3ccccc32)cc1)c1ccccc1-c1ccccc1
3,115 °C,CC(C)(CSc1ccc(Cl)cc1)C(=O)C(Oc1ccc(Cl)cc1)n1cncn1 (stereo not given)
4,153 to 158 °C,COc1ccc(F)cc1-c1cccc(-n2cnc(-c3nc(C)no3)c2)c1
5,101 to 103 °C,COC(=O)c1cc(N=Cc2ccccc2)ccc1OC(C)=O
6,78 to 80 °C,CCOc1cc(C(CC(=O)OC)N2Cc3ccccc3C2=O)ccc1OC (stereo not given)
7,65.5 to 69 °C,COc1ccc(C(=O)COc2ccc(NC3=NCCN3)cc2)cc1
8,266 to 268 °C,Nc1nc(NCCOc2ccc(O)cc2)nc2nc(-c3ccco3)nn12
9,110 to 111 °C,COc1cc(C=Cc2ccccc2)ccc1OCC(O)CCCc1cccnc1 (stereo not given)
10,105 to 106 °C,CC(NC(=O)N(C)O)c1ccc(OCc2ccccc2)cc1 (stereo not given)
11,181 to 183 °C,COc1ccc2c(c1)c(CC(=O)NO)c(C)n2C(=O)c1ccc(Cl)cc1
12,111 to 112 °C,Nc1ccc(Oc2ccccc2OCc2ccccc2)cc1
13,123 to 135 °C,CCS(=O)(=O)Nc1ccc(-c2cccc(-c3nc(C(C)C)[nH]c3-c3cccc(C)n3)c2)cc1
14,184 to 185 °C,COc1cc2c(cc1OC)CN(CCCc1ccc(NC(=O)c3cnc4ccccc4c3)cc1)CC2
15,66 to 68 °C,O=[N+]([O-])c1cccnc1Nc1ccccc1
16,124 to 126 °C,COc1ccc(CS(=O)C(C)(C)C)cc1 (stereo not given)

# Reference: a melting point compilation (Tetko et al.; mined from patent text by program, amines drawn as free bases though some values may be those of a salt)
